Experimental data reported in the supplement of paper PMC11451515.

Tested on: SEM cells
Experiment: cell viability relative to DMSO control; higher = less cytotoxic
Settings: 48 h
How it was run: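 Viability is a per-plate percentage relative to DMSO wells, with cell-free wells as background. CellTiter-Glo One luminescence was read after 48 h at 37°C on 1536-well plates (5 μl) of NOMO1 or SEM (500 cells/well) or P12-Ichikawa (1000 cells/well) leukemia cells. The cells had been adapted for at least four passages in each medium and pin-dosed with library compounds in DMSO from 47 μM to 0.79 nM in 11 threefold steps.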

[1] = HPLM + 10% dialyzed FBS, 0.000781 µM
[2] = HPLM + 10% dialyzed FBS, 0.00234 µM
[3] = HPLM + 10% dialyzed FBS, 0.00702 µM
[4] = HPLM + 10% dialyzed FBS, 0.0211 µM
[5] = HPLM + 10% dialyzed FBS, 0.0632 µM
[6] = HPLM + 10% dialyzed FBS, 0.19 µM
[7] = HPLM + 10% dialyzed FBS, 0.569 µM
[8] = HPLM + 10% dialyzed FBS, 1.71 µM
[9] = HPLM + 10% dialyzed FBS, 5.12 µM
[10] = HPLM + 10% dialyzed FBS, 15.4 µM
[11] = HPLM + 10% dialyzed FBS, 46.1 µM
[12] = RPMI 5 mM glucose + 10% FBS, 0.000781 µM
[13] = RPMI 5 mM glucose + 10% FBS, 0.00234 µM
[14] = RPMI 5 mM glucose + 10% FBS, 0.00702 µM
[15] = RPMI 5 mM glucose + 10% FBS, 0.0211 µM
[16] = RPMI 5 mM glucose + 10% FBS, 0.0632 µM
[17] = RPMI 5 mM glucose + 10% FBS, 0.19 µM
[18] = RPMI 5 mM glucose + 10% FBS, 0.569 µM
[19] = RPMI 5 mM glucose + 10% FBS, 1.71 µM
[20] = RPMI 5 mM glucose + 10% FBS, 5.12 µM
[21] = RPMI 5 mM glucose + 10% FBS, 15.4 µM
[22] = RPMI 5 mM glucose + 10% FBS, 46.1 µM
[23] = RPMI 5 mM glucose + 10% dialyzed FBS, 0.000781 µM
[24] = RPMI 5 mM glucose + 10% dialyzed FBS, 0.00234 µM
[25] = RPMI 5 mM glucose + 10% dialyzed FBS, 0.00702 µM
[26] = RPMI 5 mM glucose + 10% dialyzed FBS, 0.0211 µM
[27] = RPMI 5 mM glucose + 10% dialyzed FBS, 0.0632 µM
[28] = RPMI 5 mM glucose + 10% dialyzed FBS, 0.19 µM
[29] = RPMI 5 mM glucose + 10% dialyzed FBS, 0.569 µM
[30] = RPMI 5 mM glucose + 10% dialyzed FBS, 1.71 µM
[31] = RPMI 5 mM glucose + 10% dialyzed FBS, 5.12 µM
[32] = RPMI 5 mM glucose + 10% dialyzed FBS, 15.4 µM
[33] = RPMI 5 mM glucose + 10% dialyzed FBS, 46.1 µM

| Compound | cell viability [1] | cell viability [2] | cell viability [3] | cell viability [4] | cell viability [5] | cell viability [6] | cell viability [7] | cell viability [8] | cell viability [9] | cell viability [10] | cell viability [11] | cell viability [12] | cell viability [13] | cell viability [14] | cell viability [15] | cell viability [16] | cell viability [17] | cell viability [18] | cell viability [19] | cell viability [20] | cell viability [21] | cell viability [22] | cell viability [23] | cell viability [24] | cell viability [25] | cell viability [26] | cell viability [27] | cell viability [28] | cell viability [29] | cell viability [30] | cell viability [31] | cell viability [32] | cell viability [33] |
| --- | --- | --- | --- | --- | --- | --- | --- | --- | --- | --- | --- | --- | --- | --- | --- | --- | --- | --- | --- | --- | --- | --- | --- | --- | --- | --- | --- | --- | --- | --- | --- | --- | --- |
| CC(C)(C)C(=O)Oc1ccc2c(c1)nc(NC(=O)c1cccc([N+](=O)[O-])c1)n2CCCO | 107% | 122% | 118% | 119% | 110% | 120% | 110% | 104% | 102% | 88.5% | 93.2% | 130% | 120% | 118% | 112% | 117% | 126% | 114% | 95.7% | 97.5% | 105% | 118% | 121% | 138% | 122% | 116% | 108% | 121% | 101% | 81.1% | 107% | 106% | 128% |
| C[C@]12CC[C@@H]3c4ccc(OC(=O)N(CCCl)CCCl)cc4CC[C@H]3[C@@H]1CC[C@@H]2OP(=O)([O-])[O-].[Na+].[Na+] | 107% | 107% | 120% | 109% | 106% | 105% | 104% | 108% | 66.8% | 62.5% | 63.2% | 101% | 118% | 120% | 99.2% | 118% | 115% | 87.9% | 90.5% | 68.1% | 65.4% | 27.5% | 111% | 112% | 102% | 85.3% | 110% | 93.9% | 83.4% | 76.3% | 67.5% | 65.3% | 54.9% |
| CN\1C(=O)/C(=C(\N=C1N2CCCC[S+]2([O-])=O)C(=O)NCC3=CC=C(F)C=C3)O | 98.9% | 107% | 104% | 97.3% | 98.5% | 96.6% | 96.9% | 107% | 98.3% | 109% | 91.2% |  |  |  |  |  |  |  |  |  |  |  | 104% | 95.1% | 103% | 116% | 121% | 97.8% | 107% | 111% | 85.5% | 111% | 95.3% |
| CC1=NN(c2ccc(C)c(C)c2)C(=O)/C1=N/Nc1cccc(-c2cccc(C(=O)O)c2)c1O | 121% | 119% | 125% | 128% | 111% | 117% | 120% | 119% | 109% | 97.6% | 75.3% | 124% | 122% | 128% | 130% | 129% | 122% | 123% | 122% | 121% | 90.4% | 54.7% |  |  |  |  |  |  |  |  |  |  |  |
| CC(C)c1cnn2c(NCc3ccccc3)cc(N[C@@H](CO)[C@H](O)CO)nc12 | 117% | 140% | 120% | 119% | 142% | 136% | 79.9% | 9.33% | 5.66% | 4.28% | 1.69% |  |  |  |  |  |  |  |  |  |  |  | 121% | 134% | 121% | 123% | 120% | 121% | 80.7% | 8.71% | 5.19% | 3.66% | 1.44% |
| C[C@]12C[C@H](O)[C@H]3[C@@H](CC\C4=C\C(=O)\C=C/[C@]34C)[C@@H]1CC[C@]2(O)C(=O)CO | 113% | 112% | 119% | 118% | 129% | 118% | 98.6% | 102% | 44.8% | 67.2% | 22.6% | 118% | 115% | 114% | 143% | 123% | 127% | 107% | 90.1% | 40.9% | 64.9% | 19.6% |  |  |  |  |  |  |  |  |  |  |  |
| NC[C@H]1CC[C@H](C(=O)O)CC1 | 58.2% | 128% | 113% | 111% | 119% | 131% | 123% | 124% | 113% | 111% | 104% |  |  |  |  |  |  |  |  |  |  |  | 56.4% | 110% | 106% | 126% | 106% | 104% | 99.9% | 116% | 99.7% | 102% | 92.7% |
| CN(c1ncccc1CNc1nc(Nc2ccc3c(c2)CC(=O)N3)ncc1C(F)(F)F)[S+](C)(=O)[O-] |  |  |  |  |  |  |  |  |  |  |  | 120% | 122% | 140% | 129% | 129% | 92.7% | 99% | 91.3% | 13% | 18.9% | 4.29% | 112% | 125% | 122% | 119% | 140% | 119% | 111% | 17.1% | 11.8% | 11.6% | 3.18% |
| CC(C)n1c(/C=C/[C@H](O)C[C@H](O)CC(=O)O)c(-c2ccc(F)cc2)c2ccccc21 | 102% | 99.3% | 123% | 107% | 125% | 129% | 105% | 99.2% | 85% | 83.4% | 37.9% | 103% | 105% | 126% | 107% | 116% | 113% | 106% | 103% | 95.5% | 60.7% | 19% | 92.9% | 90.7% | 129% | 112% | 126% | 129% | 129% | 116% | 101% | 83.8% | 26.8% |
| C[C@H](O)[C@H]1[C@@H]2[C@H](C)C(=C(\N2C1=O)C(O)=O)/S[C@@H]3CN[C@H](CN[S+](N)([O-])=O)C3 | 116% | 121% | 122% | 130% | 132% | 113% | 108% | 108% | 100% | 108% | 111% | 124% | 123% | 136% | 128% | 132% | 115% | 125% | 112% | 120% | 118% | 109% |  |  |  |  |  |  |  |  |  |  |  |
| COc1ccc(Cc2ccc(NC(N)=O)cc2)cc1-c1cccc(Cl)c1 | 106% | 104% | 110% | 95.4% | 122% | 123% | 106% | 119% | 120% | 122% | 106% | 100% | 102% | 101% | 117% | 110% | 113% | 113% | 115% | 113% | 115% | 103% | 107% | 111% | 113% | 123% | 124% | 122% | 108% | 111% | 120% | 108% | 87.3% |
| ClC1=C(N\C2=N\CCN2)C3=NSN=C3C=C1 | 77.6% | 91.6% | 107% | 69.7% | 97.8% | 105% | 102% | 111% | 115% | 116% | 113% | 93.7% | 111% | 115% | 74.6% | 121% | 114% | 114% | 109% | 117% | 126% | 126% | 94.2% | 105% | 110% | 69.1% | 120% | 122% | 129% | 121% | 118% | 137% | 137% |
